These results are taken from patent US9969723B2, “3-(4-(benzyloxy)phenyl)hex-4-ynoic acid derivative, method of preparing same and pharmaceutical composition for preventing and treating metabolic disease including same as effective ingredient” (HYUNDAI PHARM CO., LTD, priority 2014, dated 2018).

Like-named read-outs stand apart in the source and are kept apart here.

This test has as its target GPR40 (Homo sapiens (Human), UniProt O14842). The test can be described thus: GPR40 protein activity by intracellular calcium concentration (Fluo-4, Flexstation 3) in transfected HEK-293 cells. In kind it is cell-based. The following applies: HEK-293 cells transfected with human GPR40, intracellular calcium. Here is the method:
The GPR40 protein activity according to the novel 3-(4-(benzyloxy)phenyl)hex-4-inoic acid derivative of the present invention was measured by investigating the changes in intracellular calcium concentration affected by the GRP40 activation. First, HEK-293 cells were transfected with human GPR40 DNA (Origene, RC218370) by using Fugene HD (Promega, E2311). […] 24 hours later, the cell culture medium was replaced with Dulbecco's Modified Eagle Medium (DMEM, 50 μl/well) supplemented with 1% fetal bovine serum (FBS). To measure the calcium concentration, 50 μl of Fluo-4 reagent (Invitrogen, F10471) was added to each well, followed by culture in a 37° C. incubator for 2 hours. […] 2 hours after the culture began, those prepared samples were automatically injected to the cells by using Flexstation 3 (Molecular Devices). Then, intracellular calcium concentration was measured for 120 seconds by using SoftMax® Pro software. At this time, dimethylsulfoxide (DMSO) was injected to the cells for the non-treated group, followed by measuring the calcium concentration therein. The GPR40 protein activity was calculated by the below mathematical formula 1 with the results of calcium concentration measurement. GPR40 activity=(intracellular calcium concentration increased by the sample)/(intracellular calcium concentration of the non-treated group)×100 [Mathematical Formula 1]
(In general: Calcium assays in cells follow changes in intracellular calcium, usually with a dye or a luminescent sensor.)

Where [1] appears, read: values in text, read-out: EC50, concentration promoting activation of GPR40 protein by 50%.

Chain of GPR40 (O14842 whole entry): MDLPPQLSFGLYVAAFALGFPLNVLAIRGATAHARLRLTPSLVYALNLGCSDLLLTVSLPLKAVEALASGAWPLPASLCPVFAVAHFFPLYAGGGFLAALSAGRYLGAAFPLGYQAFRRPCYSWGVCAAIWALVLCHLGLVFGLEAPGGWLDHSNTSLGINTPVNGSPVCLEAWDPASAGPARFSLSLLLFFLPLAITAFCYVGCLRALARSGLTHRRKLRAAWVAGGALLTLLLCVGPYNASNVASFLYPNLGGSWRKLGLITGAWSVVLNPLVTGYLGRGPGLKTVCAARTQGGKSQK

Turning to `CC#CC(CC(=O)O)c1ccc(OCc2cccc(C3=CCC(O)CC3)c2)cc1` [Example 6, L-lysine 3-(4-(3-(4-hydroxycyclohex-1-enyl)benzyloxy)phenyl)hex-4-ynoate], under “read-out: EC50”, the EC50 was 200 to 300 nM.

Take `CC#C[C@H](CC(=O)O)c1ccc(OCc2cccc(C3=CCC4(CC3)OCCO4)c2)cc1` [Example 8, (3R)-3-(4-(3-(1,4-dioxaspiro[4,5]dec-7-en-8-yl)benzyloxy)phenyl)hex-4-ynoic acid]: under “read-out: EC50”, the EC50 is above 300 nM.

In the case of `CC#CC(CC(=O)O)c1ccc(OCc2ccc(CN3CCc4ccccc4C3)cc2)cc1` (stereo not drawn) [Example 12, 3-(4-(4-((3,4-dihydroisoquinoline-2(1H)-yl)methyl)benzyloxy)phenyl)hex-4-ynoic acid], the EC50 is below 200 nM (read-out: EC50) and below 200 nM under setting [1].

As for `CC#CC(CC(=O)O)c1ccc(OCc2ccc(CN3CCc4ccccc4C3)c(C3=CCCCC3)c2)cc1` (stereo not drawn) [Example 13, 3-(4-(3-cyclohexenyl-4-((3,4-dihydroisoquinoline-2(1H)-yl)methyl)benzyloxy)phenyl)hex-4-ynoic acid], under “read-out: EC50”, the EC50 was above 300 nM.

Regarding `CC#CC(CC(=O)O)c1ccc(OCc2ccc(CN3CCN(c4ccccc4)CC3)cc2)cc1` (stereo not drawn) [Example 15, 3-(4-(4-((4-phenylpiperazine-1-yl)methyl)benzyloxy)phenyl)hex-4-ynoic acid], the EC50 (read-out: EC50) is above 300 nM.

For `CC#CC(CC(=O)O)c1ccc(OCc2ccc(CN3CCc4cc(OC)ccc4C3)cc2)cc1` (stereo not drawn) [Example 16, 3-(4-(4-((6-methoxy-3,4-dihydroisoquinoline-2(1H)-yl)methyl)benzyloxy)phenyl)hex-4-ynoic acid], where the note is “read-out: EC50”, the EC50 is above 300 nM.

Consider `CC#CC(CC(=O)O)c1ccc(OCc2ccc(CN3CCC(c4ccccc4)CC3)cc2)cc1` (stereo not drawn) [Example 17, 3-(4-(4-((4-phenylpiperidine-1-yl)methyl)benzyloxy)phenyl)hex-4-ynoic acid], for which the EC50 (read-out: EC50) is above 300 nM.

`CC#CC(CC(=O)O)c1ccc(OCc2ccc(CN3CCN(c4ccc(F)cc4)CC3)cc2)cc1` (stereo not drawn) [Example 18, 3-(4-(4-((4-(4-fluorophenyl)piperazine-1-yl)methyl)benzyloxy)phenyl)hex-4-ynoic acid]: the EC50 (read-out: EC50) was above 300 nM.

Take `CC#CC(CC(=O)O)c1ccc(OCc2ccc(CN3CCN(c4ccc(C(F)(F)F)cc4)CC3)cc2)cc1` (stereo not drawn) [Example 19, 3-(4-(4-((4-(4-(trifluoromethyl)phenyl)piperazine-1-yl)methyl)benzyloxy)phenyl)hex-4-ynoic acid]: the EC50 (read-out: EC50) is above 300 nM.

For `CC#CC(CC(=O)O)c1ccc(OCc2ccc(CN3CCN(c4ccc(OCCCS(C)(=O)=O)cc4)CC3)cc2)cc1` (stereo not drawn) [Example 20, 3-(4-(4-((4-(4-(3-(methylsulfonyl)propoxy)phenyl)piperazine-1-yl)methyl)benzyloxy)phenyl)hex-4-ynoic acid], under “read-out: EC50”, the EC50 was above 300 nM.

On to `CC#C[C@@H](CC(=O)O)c1ccc(OCc2ccc(CN3CCN(c4ccc(C(F)(F)F)cc4)CC3)cc2)cc1` [Example 22, (S)-3-(4-(4-((4-(4-(trifluoromethyl)phenyl)piperazine-1-yl)methyl)benzyloxy)phenyl)hex-4-ynoic acid], for which the EC50 (read-out: EC50) was above 300 nM.

For the compound `CC#C[C@@H](CC(=O)O)c1ccc(OCc2ccc(CN3CCN(c4ccc(F)cc4)CC3)cc2)cc1` [Example 23, (S)-3-(4-(4-((4-(4-fluorophenyl)piperazine-1-yl)methyl)benzyloxy)phenyl)hex-4-ynoic acid], for the setting “read-out: EC50”, the EC50 was in the range of 200 to 300 nM.

`CC#C[C@@H](CC(=O)O)c1ccc(OCc2ccc(CN3CCc4cc(OC)ccc4C3)cc2)cc1` [Example 25, (S)-3-(4-(4-((6-methoxy-3,4-dihydroisoquinoline-2(1H)-yl)methyl)benzyloxy)phenyl)hex-4-ynoic acid]: the EC50 (read-out: EC50) was above 300 nM.

In the case of `CC#C[C@@H](CC(=O)O)c1ccc(OCc2ccc(CN3Cc4ccccc4C3)cc2)cc1` [Example 27, (S)-3-(4-(4-(isoindoline-2-ylmethyl)benzyloxy)phenyl)hex-4-ynoic acid], the EC50 is, setting by setting: (read-out: EC50) below 200 nM; under setting [1], below 200 nM.

With `CC#C[C@@H](CC(=O)O)c1ccc(OCc2ccc(CN3CC=C(c4ccc(S(C)(=O)=O)cc4)CC3)cc2)cc1` [Example 32, (S)-3-(4-(4-((4-(4-(methylsulfonyl)phenyl)-5,6-dihydropyridine-1(2H)-yl)methyl)benzyloxy)phenyl)hex-4-ynoic acid], the EC50 (read-out: EC50) was above 300 nM.

Take `CC#C[C@@H](CC(=O)O)c1ccc(OCc2ccc(CN3CC=C(c4ccc(OCCCS(C)(=O)=O)cc4)CC3)cc2)cc1` [Example 33, (S)-3-(4-(4-((4-(4-(3-(methylsulfonyl)propoxy)phenyl)-5,6-dihydropyridine-1(2H)-yl)methyl)benzyloxy)phenyl)hex-4-ynoic acid]: the EC50 (read-out: EC50) was above 300 nM.

As to `CC#C[C@@H](CC(=O)O)c1ccc(OCc2ccc(C(C)N3CCc4ccccc4C3)cc2)cc1` (stereo partly drawn) [Example 34, (3S)-3-(4-(4-(1-(3,4-dihydroisoquinoline-2(1H)-yl)ethyl)benzyloxy)phenyl)hex-4-ynoic acid], under “read-out: EC50”, the EC50 was above 300 nM.

Regarding `CC#C[C@@H](CC(=O)O)c1ccc(OCc2ccc(CN3CCN(c4ccc(O)cc4)CC3)cc2)cc1` [Example 35, (S)-3-(4-(4-((4-(4-hydroxyphenyl)piperazine-1-yl)methyl)benzyloxy)phenyl)hex-4-ynoic acid], the EC50 (read-out: EC50) was above 300 nM.

As to `CC#C[C@@H](CC(=O)O)c1ccc(OCc2ccc(CN3CC=C(c4ccc(F)cc4)CC3)cc2)cc1` [Example 39, (S)-3-(4-(4-((4-(4-fluorophenyl)-5,6-dihydropyridine-1(2H)-yl)methyl)benzyloxy)phenyl)hex-4-ynoic acid], the EC50 (read-out: EC50) is 200 to 300 nM.

With `CC#C[C@@H](CC(=O)O)c1ccc(OCc2ccc(CN3CCCc4ccccc43)cc2)cc1` [Example 41, sodium (S)-3-(4-(4-((3,4-dihydroquinoline-1(2H)-yl)methyl)benzyloxy)phenyl)hex-4-ynoate], the EC50 (read-out: EC50) was above 300 nM.

For `CC#C[C@@H](CC(=O)O)c1ccc(OCc2ccc(CN3CCN(c4nc5ccccc5s4)CC3)cc2)cc1` [Example 43, (S)-3-(4-(4-((4-(benzo[d]thiazole-2-yl)piperazine-1-yl)methyl)benzyloxy)phenyl)hex-4-ynoic acid], the EC50 (read-out: EC50) was above 300 nM.

For `CC#C[C@@H](CC(=O)O)c1ccc(OCc2ccc(CN3CCN(c4ncc(CCC)cn4)CC3)cc2)cc1` [Example 44, (S)-3-(4-(4-((4-(5-propylpyrimidine-2-yl)piperazine-1-yl)methyl)benzyloxy)phenyl)hex-4-ynoic acid], where the note is “read-out: EC50”, the EC50 is above 300 nM.

As for `CC#C[C@@H](CC(=O)O)c1ccc(OCc2ccc(CN3CCN(c4ccc(C#N)cn4)CC3)cc2)cc1` [Example 45, (S)-3-(4-(4-((4-(5-cyanopyridine-2-yl)piperazine-1-yl)methyl)benzyloxy)phenyl)hex-4-ynoic acid], for the setting “read-out: EC50”, the EC50 is above 300 nM.

With `CC#C[C@@H](CC(=O)O)c1ccc(OCc2ccc(CN3CCC(c4ccccc4)C3)cc2)cc1` (stereo partly drawn) [Example 46, (3S)-3-(4-(4-((3-phenylpyrrolidine-1-yl)methyl)benzyloxy)phenyl)hex-4-ynoic acid], the EC50 (read-out: EC50) is above 300 nM.

On to `CC#C[C@@H](CC(=O)O)c1ccc(OCc2ccc(CCN3CCc4cc(OC)ccc4C3)cc2)cc1` [Example 48, (S)-3-(4-(4-(2-(6-methoxy-3,4-dihydroisoquinoline-2(1H)-yl)ethyl)benzyloxy)phenyl)hex-4-ynoic acid], for which, where the note is “read-out: EC50”, the EC50 was above 300 nM.
